Patent US20240083853A1, “HSD17B13 INHIBITORS AND USES THEREOF” (FL2022-001, Inc., priority 2020, published 2024)
pIC50: −log10 of the molar value.

These molecules were tested against T1, Recombinant human HSD17B13 enzyme (Homo sapiens, UniProt Q7Z5P4) (assay: HSD17b13 NAD(P)H-Glo biochemical assay). Conditions: 50 uM estradiol, 1 mM NAD+, NAD(P)H-Glo luminescence; read-out: HSD17β13 IC50.
T1 sequence (Q7Z5P4 20-300): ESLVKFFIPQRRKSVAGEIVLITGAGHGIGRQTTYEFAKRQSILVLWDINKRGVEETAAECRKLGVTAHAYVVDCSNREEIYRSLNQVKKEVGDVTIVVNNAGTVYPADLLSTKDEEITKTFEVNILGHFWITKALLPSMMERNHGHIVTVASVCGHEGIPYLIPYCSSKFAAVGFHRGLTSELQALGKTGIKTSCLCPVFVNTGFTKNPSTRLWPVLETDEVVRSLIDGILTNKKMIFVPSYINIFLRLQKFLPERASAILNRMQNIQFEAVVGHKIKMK
How it was run: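 Luminescent NAD(P)H-Glo read-out, taken after 1 hour at RT, measured cofactor reduction. Substrate and cofactor were estradiol at 50 uM and NAD+ at 1 mM final, reacted with the recombinant human enzyme for 3 hours at 37° C in 20 mM Tris pH7.4, 0.002% Tween-20, 0.02% BSA. Compound was pre-incubated with enzyme for 20 minutes at RT.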
Molecule `CC1(C)CCN(c2ccc(-n3ccc4cc(F)c(O)c(F)c43)cc2)CC1` [Compound 6.2, 1-(4-(4,4-Dimethylpiperidin-1-yl)phenyl)-5,7-difluoro-1H-indol-6-ol] has a pIC50 of 6.00 to 7.00.
In the case of `Oc1c(F)cc2cnn(-c3cnc(-c4ccc(Cl)cc4)cn3)c2c1F` [Compound 18, 1-(5-(4-Chlorophenyl)pyrazin-2-yl)-5,7-difluoro-1H-indazol-6-ol], the pIC50 was greater than 7.00.
`Oc1cc2c(nnn2-c2ccc(N3CC4(CCOCC4)C3)cc2)c(C(F)(F)F)c1F` [Compound 41, 1-(4-(7-Oxa-2-azaspiro[3.5]nonan-2-yl)phenyl)-5-fluoro-4-(trifluoromethyl)-1H-benzo[d][1,2,3]triazol-6-ol] was tested, and the pIC50 was 6.00 to 7.00.
For `CC1(C)CCN(c2cnc(-n3nnc4cc(F)c(O)c(F)c43)nc2)CC1` [Compound 26.20, 1-(5-(4,4-Dimethylpiperidin-1-yl)pyrimidin-2-yl)-5,7-difluoro-1H-benzo[d][1,2,3]triazol-6-ol], the pIC50 was greater than 7.00.
`CS(=O)(=O)N1CCCN(c2ccc(-n3ncc4cc(F)c(O)c(F)c43)cc2)CC1` [Compound 23.14, 5,7-Difluoro-1-(4-(4-(methylsulfonyl)-1,4-diazepan-1-yl)phenyl)-1H-indazol-6-ol] was tested, and the pIC50 was 6.00 to 7.00.
`CC1(C(F)(F)F)CCN(c2ccc(-n3ncc4cc(F)c(O)c(F)c43)cc2)CC1` [Compound 24.8, 5,7-Difluoro-1-(4-(4-methyl-4-(trifluoromethyl)piperidin-1-yl)phenyl)-1H-indazol-6-ol] gave a pIC50 greater than 7.00.
Work on `CS(=O)(=O)N1CCN(c2ncc(-n3ncc4cc(F)c(O)c(F)c43)cn2)CC1` [Compound 7, 5,7-Difluoro-1-(2-(4-(methylsulfonyl)piperazin-1-yl)pyrimidin-5-yl)-1H-indazol-6-ol] yielded a pIC50 of 6.00 to 7.00.
